Source: patent US10550111B2, “Pyrimidine urea compound containing isoxazolines and use thereof” (SHENYANG SINOCHEM AGROCHEMICALS R&D CO., LTD, priority 2014, dated 2020)

Tests used:
Format in all cases: in vivo
[1] = test system: Abutilon theophrasti Medic.; experiment: Bioassay of herbicidal activity in greenhouse (further screening)
Summary of the method: (§1)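 Visual growth inhibition rating (0–100%; 100 = weeds dead or not emerged) after track-sprayer application of compounds formulated as emulsifiable concentrates. Sprays given 24 h post-sowing (pre-emergence) or at 2–3-leaf (grasses) / 2–4-leaf (broad-leaves) stage, greenhouse-grown plants.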

[2] = test system: Setaria glauca (L.) Beauv.; experiment: as above
Summary of the method: as §1

Zinnia elegans Jacq. = experiment: as above
Summary of the method: as §1

[3] = test system: Echinochloa crus-galli (L.) Beauv.; experiment: as above
Summary of the method: as §1

[4] = test system: broad-leaf weeds and grass weeds; experiment: General screening of herbicidal activity in greenhouse; conditions: 1000 g a.i./hm^2;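 note: 0 means no visible effect and 100 means all weeds dead or not emerged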
Summary of the method: as §1

CCCCOC(=O)C1(C)CC(c2cc(-n3c(=O)cc(C(F)(F)F)n(C)c3=O)c(F)cc2Cl)=NO1 (stereo not shown) [Compound 8]
Growth inhibition rate, Post-emergence treatment, Abutilon theophrasti Medic. ([1]; dose 7.5 g a.i./hm^2): 100% | Growth inhibition rate, Post-emergence treatment, Abutilon theophrasti Medic. ([1]; dose 15 g a.i./hm^2): 100% | Growth inhibition rate, Post-emergence treatment, Abutilon theophrasti Medic. ([1]; dose 30.0 g a.i./hm^2): 100% | Growth inhibition rate, Post-emergence treatment, Abutilon theophrasti Medic. ([1]; dose 60.0 g a.i./hm^2): 100% | Growth inhibition rate, Post-emergence treatment, Abutilon theophrasti Medic. ([1]; dose 120.0 g a.i./hm^2): 100% | Growth inhibition rate, Post-emergence treatment, Setaria glauca (L.) Beauv. ([2]; dose 7.5 g a.i./hm^2): 60% | Growth inhibition rate, Post-emergence treatment, Setaria glauca (L.) Beauv. ([2]; dose 15 g a.i./hm^2): 80% | Growth inhibition rate, Post-emergence treatment, Setaria glauca (L.) Beauv. ([2]; dose 30.0 g a.i./hm^2): 100% | Growth inhibition rate, Post-emergence treatment, Setaria glauca (L.) Beauv. ([2]; dose 60.0 g a.i./hm^2): 100% | Growth inhibition rate, Post-emergence treatment, Setaria glauca (L.) Beauv. ([2]; dose 120.0 g a.i./hm^2): 100% | Growth inhibition rate, Post-emergence treatment, Zinnia elegans Jacq. (Zinnia elegans Jacq.; dose 7.5 g a.i./hm^2): 90% | Growth inhibition rate, Post-emergence treatment, Zinnia elegans Jacq. (Zinnia elegans Jacq.; dose 15 g a.i./hm^2): 95% | Growth inhibition rate, Post-emergence treatment, Zinnia elegans Jacq. (Zinnia elegans Jacq.; dose 30.0 g a.i./hm^2): 95% | Growth inhibition rate, Post-emergence treatment, Zinnia elegans Jacq. (Zinnia elegans Jacq.; dose 60.0 g a.i./hm^2): 100% | Growth inhibition rate, Post-emergence treatment, Zinnia elegans Jacq. (Zinnia elegans Jacq.; dose 120.0 g a.i./hm^2): 100% | Growth inhibition rate, Post-emergence treatment, Echinochloa crus-galli (L.) Beauv. ([3]; dose 7.5 g a.i./hm^2): 70% | Growth inhibition rate, Post-emergence treatment, Echinochloa crus-galli (L.) Beauv. ([3]; dose 15 g a.i./hm^2): 95% | Growth inhibition rate, Post-emergence treatment, Echinochloa crus-galli (L.) Beauv. ([3]; dose 30.0 g a.i./hm^2): 100% | Growth inhibition rate, Post-emergence treatment, Echinochloa crus-galli (L.) Beauv. ([3]; dose 60.0 g a.i./hm^2): 100% | Growth inhibition rate, Post-emergence treatment, Echinochloa crus-galli (L.) Beauv. ([3]; dose 120.0 g a.i./hm^2): 100% | pre-emergence and post-emergence herbicidal activity against broad-leaf weeds and grass weeds [4]: good

Cn1c(C(F)(F)F)cc(=O)n(-c2cc(C3=NOC(C)(C(=O)OCC(F)(F)F)C3)c(Cl)cc2F)c1=O (stereo not shown) [Compound 396]
Growth inhibition rate, Post-emergence treatment, Abutilon theophrasti Medic. ([1]; dose 7.5 g a.i./hm^2): 98% | Growth inhibition rate, Post-emergence treatment, Abutilon theophrasti Medic. ([1]; dose 15 g a.i./hm^2): 100% | Growth inhibition rate, Post-emergence treatment, Abutilon theophrasti Medic. ([1]; dose 30.0 g a.i./hm^2): 100% | Growth inhibition rate, Post-emergence treatment, Abutilon theophrasti Medic. ([1]; dose 60.0 g a.i./hm^2): 100% | Growth inhibition rate, Post-emergence treatment, Abutilon theophrasti Medic. ([1]; dose 120.0 g a.i./hm^2): 100% | Growth inhibition rate, Post-emergence treatment, Setaria glauca (L.) Beauv. ([2]; dose 7.5 g a.i./hm^2): 25% | Growth inhibition rate, Post-emergence treatment, Setaria glauca (L.) Beauv. ([2]; dose 15 g a.i./hm^2): 55% | Growth inhibition rate, Post-emergence treatment, Setaria glauca (L.) Beauv. ([2]; dose 30.0 g a.i./hm^2): 85% | Growth inhibition rate, Post-emergence treatment, Setaria glauca (L.) Beauv. ([2]; dose 60.0 g a.i./hm^2): 98% | Growth inhibition rate, Post-emergence treatment, Setaria glauca (L.) Beauv. ([2]; dose 120.0 g a.i./hm^2): 100% | Growth inhibition rate, Post-emergence treatment, Zinnia elegans Jacq. (Zinnia elegans Jacq.; dose 7.5 g a.i./hm^2): 30% | Growth inhibition rate, Post-emergence treatment, Zinnia elegans Jacq. (Zinnia elegans Jacq.; dose 15 g a.i./hm^2): 60% | Growth inhibition rate, Post-emergence treatment, Zinnia elegans Jacq. (Zinnia elegans Jacq.; dose 30.0 g a.i./hm^2): 75% | Growth inhibition rate, Post-emergence treatment, Zinnia elegans Jacq. (Zinnia elegans Jacq.; dose 60.0 g a.i./hm^2): 100% | Growth inhibition rate, Post-emergence treatment, Zinnia elegans Jacq. (Zinnia elegans Jacq.; dose 120.0 g a.i./hm^2): 100% | Growth inhibition rate, Post-emergence treatment, Echinochloa crus-galli (L.) Beauv. ([3]; dose 7.5 g a.i./hm^2): 20% | Growth inhibition rate, Post-emergence treatment, Echinochloa crus-galli (L.) Beauv. ([3]; dose 15 g a.i./hm^2): 55% | Growth inhibition rate, Post-emergence treatment, Echinochloa crus-galli (L.) Beauv. ([3]; dose 30.0 g a.i./hm^2): 95% | Growth inhibition rate, Post-emergence treatment, Echinochloa crus-galli (L.) Beauv. ([3]; dose 60.0 g a.i./hm^2): 100% | Growth inhibition rate, Post-emergence treatment, Echinochloa crus-galli (L.) Beauv. ([3]; dose 120.0 g a.i./hm^2): 100% | pre-emergence and post-emergence herbicidal activity against broad-leaf weeds and grass weeds [4]: good

C#CCOC(=O)C1(C)CC(c2cc(-n3c(=O)cc(C(F)(F)F)n(C)c3=O)ccc2Cl)=NO1 (stereo not shown) [Compound 290]
Growth inhibition rate, Post-emergence treatment, Abutilon theophrasti Medic. ([1]; dose 37.5 g a.i./hm^2): 85% | Growth inhibition rate, Post-emergence treatment, Abutilon theophrasti Medic. ([1]; dose 150 g a.i./hm^2): 98% | Growth inhibition rate, Post-emergence treatment, Abutilon theophrasti Medic. ([1]; dose 600 g a.i./hm^2): 100% | Growth inhibition rate, Pre-emergence treatment, Abutilon theophrasti Medic. ([1]; dose 37.5 g a.i./hm^2): 10% | Growth inhibition rate, Pre-emergence treatment, Abutilon theophrasti Medic. ([1]; dose 150 g a.i./hm^2): 35% | Growth inhibition rate, Pre-emergence treatment, Abutilon theophrasti Medic. ([1]; dose 600 g a.i./hm^2): 60% | Growth inhibition rate, Post-emergence treatment, Setaria glauca (L.) Beauv. ([2]; dose 37.5 g a.i./hm^2): 40% | Growth inhibition rate, Post-emergence treatment, Setaria glauca (L.) Beauv. ([2]; dose 150 g a.i./hm^2): 75% | Growth inhibition rate, Post-emergence treatment, Setaria glauca (L.) Beauv. ([2]; dose 600 g a.i./hm^2): 85% | Growth inhibition rate, Pre-emergence treatment, Setaria glauca (L.) Beauv. ([2]; dose 37.5 g a.i./hm^2): 0% | Growth inhibition rate, Pre-emergence treatment, Setaria glauca (L.) Beauv. ([2]; dose 150 g a.i./hm^2): 10% | Growth inhibition rate, Pre-emergence treatment, Setaria glauca (L.) Beauv. ([2]; dose 600 g a.i./hm^2): 25% | Growth inhibition rate, Post-emergence treatment, Zinnia elegans Jacq. (Zinnia elegans Jacq.; dose 37.5 g a.i./hm^2): 75% | Growth inhibition rate, Post-emergence treatment, Zinnia elegans Jacq. (Zinnia elegans Jacq.; dose 150 g a.i./hm^2): 100% | Growth inhibition rate, Post-emergence treatment, Zinnia elegans Jacq. (Zinnia elegans Jacq.; dose 600 g a.i./hm^2): 100% | Growth inhibition rate, Pre-emergence treatment, Zinnia elegans Jacq. (Zinnia elegans Jacq.; dose 37.5 g a.i./hm^2): 0% | Growth inhibition rate, Pre-emergence treatment, Zinnia elegans Jacq. (Zinnia elegans Jacq.; dose 150 g a.i./hm^2): 0% | Growth inhibition rate, Pre-emergence treatment, Zinnia elegans Jacq. (Zinnia elegans Jacq.; dose 600 g a.i./hm^2): 20% | Growth inhibition rate, Post-emergence treatment, Echinochloa crus-galli (L.) Beauv. ([3]; dose 37.5 g a.i./hm^2): 25% | Growth inhibition rate, Post-emergence treatment, Echinochloa crus-galli (L.) Beauv. ([3]; dose 150 g a.i./hm^2): 65% | Growth inhibition rate, Post-emergence treatment, Echinochloa crus-galli (L.) Beauv. ([3]; dose 600 g a.i./hm^2): 70% | Growth inhibition rate, Pre-emergence treatment, Echinochloa crus-galli (L.) Beauv. ([3]; dose 37.5 g a.i./hm^2): 0% | Growth inhibition rate, Pre-emergence treatment, Echinochloa crus-galli (L.) Beauv. ([3]; dose 150 g a.i./hm^2): 0% | Growth inhibition rate, Pre-emergence treatment, Echinochloa crus-galli (L.) Beauv. ([3]; dose 600 g a.i./hm^2): 20% | pre-emergence and post-emergence herbicidal activity against broad-leaf weeds and grass weeds [4]: good
